These results are taken from US20080119471A1, “Piperazine urea derivatives for the treatment of endometriosis” (priority 2004, published 2008).

Assay [1] has as its target T1, human CCR1 (Homo sapiens, UniProt P32246).
T1 sequence (P32246 1-355): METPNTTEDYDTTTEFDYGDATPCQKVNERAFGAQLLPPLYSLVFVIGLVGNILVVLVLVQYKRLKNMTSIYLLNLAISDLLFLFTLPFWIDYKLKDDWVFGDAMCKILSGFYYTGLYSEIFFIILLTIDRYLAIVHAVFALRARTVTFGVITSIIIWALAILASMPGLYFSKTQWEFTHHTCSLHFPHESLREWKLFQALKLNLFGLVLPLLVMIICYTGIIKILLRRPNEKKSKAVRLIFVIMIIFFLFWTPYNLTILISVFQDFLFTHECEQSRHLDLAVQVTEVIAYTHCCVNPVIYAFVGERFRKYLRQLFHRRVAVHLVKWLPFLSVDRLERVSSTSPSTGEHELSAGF
Kind of assay: In vitro assay for CCR1 receptor antagonists: competition with 125I-MIP-1α or 125I-RANTES on 293MR cells. In kind it is binding. Conditions: Table 2. The arrangement: expressed in transfected cells. The protocol: Human CCR1 cDNA was provided through collaboration with Dr. Stephen Peiper of the University of Louisville, Ky. […] The plasmid also contained hygromycin and puromycin resistance genes. Calcium phosphate transfection standard protocols were used to insert the plasmid into the HEK293 cells. Cells were selected for stable expression of CCR1 using hygromycin and puromycin selection.
• 130 mM NaCl, 5 mM KCl, 1 mM MnCl2, 50 mM Tris, 30 μg/ml bacitracin, 0.1% BSA, pH 7.4.
The stock solution of the compounds was 1 mM in 100% DMSO. […] A serial 1:3 dilution from the highest concentration was made with assay buffer. Six concentrations of each compound were usually being screened to generate a dose curve from which the Ki value was determined.
Assays were performed in 96-well v-bottom microtiter plates in a total volume of 100 μl. […] The cells were washed once in PBS and resuspended in the assay buffer to about 1.1×10^5 cells/mL.
The radioactivities in each well were determined by scintillation counting following addition of 50 μl of scintillation fluid.
The nonspecific binding was defined by the binding in the presence of 100 nM of unlabeled MIP-1α or RANTES.
The dose curves of each compound with 6 concentration points were generated and IC50 values were determined by fitting the data to the log-logit equation (linear) with an EXCEL spread-sheet.

Assay [2] has as its target T1, human CCR1. The conditions noted are these: result in words; cited from earlier work.

What is called Ki is a measure of affinity in units of concentration, obtained from inhibition or displacement. At human CCR1 [1], `C[C@@H]1CN(C(=O)COc2ccc(Cl)cc2CNC(N)=O)[C@@H](C)CN1Cc1ccc(F)cc1` [compound 14] registered a Ki of 2 nM.
Take `CC1CN(C(=O)COc2ccc(Cl)cc2N)C(C)CN1Cc1ccc(F)cc1` (stereo not drawn) [compound 15]: the affinity on human CCR1 [1] corresponds to a Ki of 9 nM.
The molecule `CC1CN(Cc2ccc(F)cc2)CCN1C(=O)COc1ccc(Cl)c([N+](=O)[O-])c1` (stereo not drawn) [compound 16] had an inhibition constant (Ki) at human CCR1 [1] of 21 nM.
Turning to `C[C@@H]1CN(C(=O)COc2ccc(Cl)cc2NCc2ccccc2)[C@@H](C)CN1Cc1ccc(F)cc1` [compound 17], the Ki on human CCR1 [1] worked out at 42 nM.
Turning to `CCCC(C)Nc1cc(Cl)ccc1OCC(=O)N1C[C@@H](C)N(Cc2ccc(F)cc2)C[C@@H]1C` (stereo partly drawn) [compound 18], on human CCR1 [1], the Ki worked out at 87 nM.
At human CCR1 [1], `CC(=O)Nc1cc(Cl)ccc1OCC(=O)N1CCN(Cc2ccc(F)cc2)CC1C` (stereo not drawn) [compound 19] came in with a Ki of 5 nM.
As for `CCCC(=O)Nc1cc(Cl)ccc1OCC(=O)N1C[C@@H](C)N(Cc2ccc(F)cc2)C[C@@H]1C` [compound 20], at human CCR1 [1], the inhibition constant Ki was determined as 7 nM.
On the same count and under the same terms, for `CC(C)C(=O)Nc1cc(Cl)ccc1OCC(=O)N1C[C@@H](C)N(Cc2ccc(F)cc2)C[C@@H]1C` [compound 21] the value was 13 nM; for `COCC(=O)Nc1cc(Cl)ccc1OCC(=O)N1C[C@@H](C)N(Cc2ccc(F)cc2)C[C@@H]1C` [compound 22], 3 nM.
Take `COC(=O)CCC(=O)Nc1cc(Cl)ccc1OCC(=O)N1C[C@@H](C)N(Cc2ccc(F)cc2)C[C@@H]1C` [compound 23]: the inhibitory constant (Ki) at human CCR1 [1] was determined as 5 nM.
At human CCR1 [1], `C[C@@H]1CN(C(=O)COc2ccc(Cl)cc2NS(C)(=O)=O)[C@@H](C)CN1Cc1ccc(F)cc1` [compound 24] returned a Ki of 6 nM.
On the same count and under the same terms, for `C[C@@H]1CN(C(=O)COc2ccc(Cl)cc2NC(=O)CN)[C@@H](C)CN1Cc1ccc(F)cc1` [compound 26] the value was 1 nM; for `C[C@@H]1CN(C(=O)COc2ccc(Cl)cc2NC(=O)CNC(N)=O)[C@@H](C)CN1Cc1ccc(F)cc1` [compound 27], 2 nM.
For the molecule `CCN(C)C(C)c1cc(Cl)ccc1OCC(=O)N1C[C@@H](C)N(Cc2ccc(F)cc2)C[C@@H]1C` (stereo partly drawn) [compound 28], on human CCR1 [1], the Ki was 18 nM.
`CC(c1cc(Cl)ccc1OCC(=O)N1C[C@@H](C)N(Cc2ccc(F)cc2)C[C@@H]1C)n1ccnc1` (stereo partly drawn) [compound 29] returned a Ki on human CCR1 [1] of 6 nM.
`C[C@@H]1CN(C(=O)COc2ccc(Cl)cc2C(=O)NCCN)[C@@H](C)CN1Cc1ccc(F)cc1` [compound 30] displayed a Ki on human CCR1 [1] of 9 nM.
In turn, `CC(=O)Nc1ccccc1OCC(=O)N1CCN(Cc2ccc(F)cc2)CC1C` (stereo not drawn) [compound 31] displayed a Ki on human CCR1 [1] of 106 nM.
In turn, `C[C@@H]1CN(C(=O)COc2cccc(C#N)c2)[C@@H](C)CN1Cc1ccc(F)cc1` [compound 32] showed an inhibition constant Ki at human CCR1 [1] of 68 nM.
`Cc1cc(O)cc(OCC(=O)N2C[C@H](C)N(Cc3ccc(F)cc3)C[C@H]2C)c1` [compound 33] returned a Ki at human CCR1 [1] of 5 nM.
On human CCR1 [1], `COC(=O)c1ccc(OC)cc1OCC(=O)N1C[C@@H](C)N(Cc2ccc(F)cc2)C[C@@H]1C` [compound 34] showed an inhibitory constant (Ki) of 31 nM. Against the preceding molecule, the Ki is about 6.2-fold higher.
The same measure, in the same setting: in the case of `CC(O)C1CN(Cc2ccc(F)cc2)CCN1C(=O)COc1ccc(Cl)cc1` (stereo not drawn) [compound 35] it was 13 nM; in that of `C=CC(O)CC1CN(Cc2ccc(F)cc2)CCN1C(=O)COc1ccc(Cl)cc1` (stereo not drawn) [compound 36], 172 nM.
Regarding `O=C(COc1ccc(Cl)cc1)N1CCN(Cc2ccc(F)cc2)C(C(F)(F)F)C1` (stereo not drawn) [compound 37], the inhibition constant (Ki) on human CCR1 [1] worked out at 148 nM. This Ki and that of the molecule before are within 1.5-fold of each other.
`C[C@@H]1CN(C(=O)COc2ccc3ccc(=O)oc3c2)[C@@H](C)CN1Cc1ccc(F)cc1` [compound 39]: the inhibitory constant (Ki) at human CCR1 [1] amounted to 18 nM. Compared with the last molecule, the Ki is about 8.2-fold lower.
Turning to `C[C@@H]1CN(C(=O)COc2ccc(Cl)cc2N2C(=O)c3ccccc3C2=O)[C@@H](C)CN1Cc1ccc(F)cc1` [compound 40], the affinity at human CCR1 [1], expressed as Ki, was 64 nM.
In the case of `C[C@@H]1CN(C(=O)CC(CN)c2ccc(Cl)cc2)[C@@H](C)CN1Cc1ccc(F)cc1` (stereo partly drawn) [compound 41], the inhibitory constant (Ki) at human CCR1 [1] worked out at 56 nM.
Still for that read-out and setting: for `CC(=O)NCC(CC(=O)N1C[C@@H](C)N(Cc2ccc(F)cc2)C[C@@H]1C)c1ccc(Cl)cc1` (stereo partly drawn) [compound 42] the value was 26 nM; for `C[C@@H]1CN(C(=O)CC(NS(C)(=O)=O)c2ccc(Cl)cc2)[C@@H](C)CN1Cc1ccc(F)cc1` (stereo partly drawn) [compound 43], 32 nM; for `CCC1CN(Cc2ccc(F)cc2)CCN1C(=O)COc1ccc(Cl)cc1` (stereo not drawn) [compound 44], 15 nM.
For the molecule `CCC[C@@H]1CN(Cc2ccc(F)cc2)CCN1C(=O)COc1ccc(Cl)cc1` [compound 45], the affinity at human CCR1 [1] corresponds to a Ki of 75 nM.
Turning to `O=C(COc1ccc(Cl)cc1)N1CCN(Cc2ccc(F)cc2)CC12CC2` [compound 46], on human CCR1 [1], the Ki was 74 nM. This Ki and that of the molecule before are within 1.5-fold of each other.
`C[C@@H]1CN(C(=O)COc2ccc(Cl)cc2C(N)=O)[C@@H](C)CN1Cc1ccc(F)cc1` [compound 47] gave a Ki at human CCR1 [1] of 3 nM.
`C[C@@H]1CN(Cc2ccc(F)cc2)[C@@H](CC#N)CN1C(=O)COc1ccc(Cl)cc1` [compound 48] registered a Ki at human CCR1 [1] of 38 nM. Compared with the last molecule, the Ki is about 13-fold higher.
On the same count and under the same terms, for `C[C@@H]1CN(Cc2ccc(F)cc2)[C@@H](CN2CCOCC2)CN1C(=O)COc1ccc(Cl)cc1` [compound 49] the value was 109 nM.
Turning to “MCP-1: human chemokine that binds human CCR1 with low affinity; a ligand for CCR2”, in the assay with human CCR1 [2], the “signalling through human CCR1” value is given as “neither ligand is able to signal”.

B1: MIP-1β: human chemokine that binds human CCR1 with low affinity (protein, UniProt P13236 24-92, looked up)
C-C motif chemokine 4: APMGSDPPTACCFSYTARKLPRNFVVDYYETSSLCSQPAVVFQTKRSKQVCADPSESWVQEYVYDLELN
Turning to B1, the “signalling through human CCR1” value with human CCR1 [2] is “neither ligand is able to signal”.
